# Assay results as given in PubChem BioAssay AID1963831 (Molecular Pharmacology Branch, DTP, NCI, 2024).
# System: 889142-216-R-J1-PDC complex spheroid viability
# Assay: Anticancer human tumor 889142-216-R-J1-PDC patient-derived bladder carcinoma cell line growth inhibition [POLQ]
# Details: for IC50: curve of first compound; for viability, T/C: stronger effect = lower value
# Outline: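 PDC + HUVEC + MSC complex spheroids; POLQ inhibitors ± partner drugs; top conc. at/near clinical Cmax, else 10 microM (SN-38 1 microM), half-log dilutions; 37 degrees C, 5% CO2.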
# 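Also: spheroids exposed to compounds for seven days.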
# 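For viability, T/C in this document: 100% = DMSO vehicle control viability.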
compound,measurement,setting,value
O=C(Nc1ccc(O)c(NS(=O)(=O)c2ccc(F)cc2)c1)c1ccc(-c2ccccc2)cc1 + COC1C(OC(N)=O)C(O)C(Oc2ccc3c(O)c(NC(=O)c4ccc(O)c(CC=C(C)C)c4)c(=O)oc3c2C)OC1(C)C,IC50,second compound 0.0316 µM,> 10 µM
same,IC50,second compound 0.1 µM,> 10 µM
same,IC50,second compound 0.316 µM,> 10 µM
same,IC50,second compound 1 µM,> 10 µM
same,IC50,second compound 3.16 µM,> 10 µM
same,IC50,second compound 10 µM,> 10 µM
same,"viability, T/C","second compound 0.0316 µM, first compound 0.0316 µM",122%
same,"viability, T/C","second compound 0.0316 µM, first compound 0.1 µM",98.7%
same,"viability, T/C","second compound 0.0316 µM, first compound 0.316 µM",115%
same,"viability, T/C","second compound 0.0316 µM, first compound 1 µM",116%
same,"viability, T/C","second compound 0.0316 µM, first compound 3.16 µM",116%
same,"viability, T/C","second compound 0.0316 µM, first compound 10 µM",67.2%
same,"viability, T/C","second compound 0.1 µM, first compound 0.0316 µM",93.9%
same,"viability, T/C","second compound 0.1 µM, first compound 0.1 µM",90.7%
same,"viability, T/C","second compound 0.1 µM, first compound 0.316 µM",92.6%
same,"viability, T/C","second compound 0.1 µM, first compound 1 µM",108%
same,"viability, T/C","second compound 0.1 µM, first compound 3.16 µM",111%
same,"viability, T/C","second compound 0.1 µM, first compound 10 µM",64.7%
same,"viability, T/C","second compound 0.316 µM, first compound 0.0316 µM",128%
same,"viability, T/C","second compound 0.316 µM, first compound 0.1 µM",110%
same,"viability, T/C","second compound 0.316 µM, first compound 0.316 µM",99.9%
same,"viability, T/C","second compound 0.316 µM, first compound 1 µM",125%
same,"viability, T/C","second compound 0.316 µM, first compound 3.16 µM",139%
same,"viability, T/C","second compound 0.316 µM, first compound 10 µM",73.8%
same,"viability, T/C","second compound 1 µM, first compound 0.0316 µM",103%
same,"viability, T/C","second compound 1 µM, first compound 0.1 µM",115%
same,"viability, T/C","second compound 1 µM, first compound 0.316 µM",114%
same,"viability, T/C","second compound 1 µM, first compound 1 µM",107%
same,"viability, T/C","second compound 1 µM, first compound 3.16 µM",105%
same,"viability, T/C","second compound 1 µM, first compound 10 µM",75.9%
same,"viability, T/C","second compound 3.16 µM, first compound 0.0316 µM",87.7%
same,"viability, T/C","second compound 3.16 µM, first compound 0.1 µM",108%
same,"viability, T/C","second compound 3.16 µM, first compound 0.316 µM",96.2%
same,"viability, T/C","second compound 3.16 µM, first compound 1 µM",117%
same,"viability, T/C","second compound 3.16 µM, first compound 3.16 µM",126%
same,"viability, T/C","second compound 3.16 µM, first compound 10 µM",73.6%
same,"viability, T/C","second compound 10 µM, first compound 0.0316 µM",99.8%
same,"viability, T/C","second compound 10 µM, first compound 0.1 µM",103%
same,"viability, T/C","second compound 10 µM, first compound 0.316 µM",101%
same,"viability, T/C","second compound 10 µM, first compound 1 µM",118%
same,"viability, T/C","second compound 10 µM, first compound 3.16 µM",107%
same,"viability, T/C","second compound 10 µM, first compound 10 µM",63.7%
